Measurements from patent publication US4728641A, “Ganglioside derivatives” (Burroughs Wellcome Co., priority 1983, dated 1988).

Columns and labels:
[1] = test system: Candida albicans (strain CN 7996); assay: In vivo activity against Candida albicans infection in mice; design: species or system Swiss male albino mice (Charles River CD1); conditions: cyclophosphamide 50 mg/kg i.v. 96 hours before infection, GM1 P 10 mg/kg s.c. 96 and 24 hours before infection, or both
Method: 53 Swiss male albino mice (Charles River CD1) weighing 23±1 g were randomly divided into […] groups of 10, 14, 14 and 15 animals each (groups 1 to 4 respectively). Group 1 animals were injected with saline as a control group; Group 2 were injected with cyclophosphamide 50 mg/kg (0.2 ml/mouse) intravenously 96 hours before infection; Group 3 with cyclophosphamide 50 mg/kg (0.2 ml/mouse) intravenously 96 hours before infection and with GM1 P 10 mg/kg (0.25 ml/10 g) subcutaneously at 96 and 24 hours before infection; and Group 4 with GM1 P 10 mg/kg (0.25 ml/10 g) subcutaneously 96 and 24 hours before infection. The mice were then injected intravenously with 0.225 ml/mouse of an 18 hour culture of Sabouraud glucose broth containing 1.204×10^7 Candida albicans cells/ml (strain CN 7996).

Plasmodium berghei = assay: In vivo activity against Plasmodium berghei protozoa in mice; design: species or system Swiss male albino mice (Charles River CD1); conditions: GM1 P (Example 1) 5 mg/kg s.c. 24 and 2 hours before infection, pyrimethamine 1 mg/kg s.c. days 0, 1 and 2, or both
Method: 40 Swiss male albino mice (Charles River CD1) weighing 22±1 g were randomly divided into groups of 10 and injected intraperitoneally with 0.1 ml/10 g of citrated blood of 6-day parasitised mice which had been diluted 1:1000 (v/v) with saline to obtain 1.58×10^6 P. berghei I.S.S./ml. The control group (1) were injected with saline, group 2 with ganglioside GM1 P prepared by the method of Example 1 (5 mg/kg s.c. in saline), group 3 with the known anti-protozoal agent pyrimethamine (1 mg/kg s.c. in CMC 0.25% in water, w/v), and group 4 with both GM1 P and pyrimethamine at the doses stated above. The dose volume was 0.25 ml/10 g. The GM1 P was administered 24 hours and 2 hours before infection (Day 0) and the pyrimethamine on days 0,1 and 2.

Structure (SMILES)	Number alive at Day 23 ([1]; Day 23)	Mean survival time [1]	Mortality (%) Day 9 (Plasmodium berghei; Day 9)	Mortality (%) Day 13 (Plasmodium berghei; Day 13)
O=P1(N(CCCl)CCCl)NCCCO1 (stereo not shown) [cyclophosphamide]	0	1.21 days		
CCc1nc(N)nc(N)c1-c1ccc(Cl)cc1 [pyrimethamine]			50%	90%
